Data as given in patent publication US20230077362A1 (CORTEVA AGRISCIENCE LLC, priority 2019, published 2023).
Where two headings read alike, the source gives them in different places.

Tests used:
[1] = system: Cabbage Looper (Trichoplusia ni) ("CL"), second instar larvae; test: Bioassay on cabbage looper (CL), 128-well diet tray assay; assay type: in vivo; conditions: for pest or weed control at 50 µg/cm2: Trichoplusia ni; for CL rating: Table ABC, species CL, C = not tested, D = no activity noticed
Procedure, shortened: (§1)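 Second-instar larvae on diet in 128-well trays, covered and held at 25° C, 14:10 light-dark, for five to seven days. Percent mortality scored per well and averaged over eight wells; activity reported as a rating category.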

[2] = system: Beet Armyworm (Spodoptera exigua) ("BAW"), second instar larvae; test: Bioassay on beet armyworm (BAW), 128-well diet tray assay; assay type: in vivo; conditions: for pest or weed control at 50 µg/cm2: Spodoptera exigua; for BAW rating: Table ABC, species BAW, C = not tested, D = no activity noticed
Procedure, shortened: as §1

[3] = read-out: CL (Biological Results, rating)
[4] = read-out: BAW (Biological Results, rating)

Compound | pest or weed control at 50 µg/cm2 [1, 3] | pest or weed control at 50 µg/cm2 [2, 4] | pest or weed control at 50 µg/cm2 ([1]; read-out: CL rating) | pest or weed control at 50 µg/cm2 ([2]; read-out: BAW rating) | other results
CCc1cc(-c2ncn(-c3ccc(OC(F)(F)F)cc3)n2)ccc1NC(=O)/N=C1\SCC(=O)N1c1cc(N(CC)CC)ccc1C(C)C [Compound J160, (Z)-1-(3-(5-(Diethylamino)-2-isopropylphenyl)-4-oxothiazolidin-2-ylidene)-3-(2-ethyl-4-(1-(4-(trifluoromethoxy)phenyl)-1H-1,2,4-triazol-3-yl)phenyl)urea] | 50 to 100% | 50 to 100% |  |  | 
Cc1ccc(COCC(Cl)Cl)c(N2C(=O)CS/C2=N\C(=O)Nc2ccc(-c3ncn(-c4ccc(S(F)(F)(F)(F)F)cc4)n3)cc2C)c1 [Compound J556] |  |  |  |  | CL rating [1]: A (50-100); BAW rating [2]: A (50-100)
COC(C)c1ccc(C)cc1N1C(=O)CS/C1=N\C(=O)Nc1ccc(-c2nnc(-c3ccc(OC(F)(F)F)cc3)s2)cc1F (stereo not shown) [Compound J504, (Z)-1-(2-Fluoro-4-(5-(4-(trifluoromethoxy)phenyl)-1,3,4-thiadiazol-2-yl)phenyl)-3-(3-(2-(1-methoxyethyl)-5-methylphenyl)-4-oxothiazolidin-2-ylidene)urea] |  |  | 50 to 100% | 0 to 50% | 
COc1ccc(C(C)C)c(N2C(=O)CS/C2=N\C(=O)Nc2ccc(-c3ncn(-c4ccc(OC(F)(F)F)cc4)n3)cc2Cl)c1 [Compound J37, (Z)-1-(2-Chloro-4-(1-(4-(trifluoromethoxy)phenyl)-1H-1,2,4-triazol-3-yl)phenyl)-3-(3-(2-isopropyl-5-methoxyphenyl)-4-oxothiazolidin-2-ylidene)urea] | 50 to 100% | 50 to 100% |  |  | 
Cc1cc(COCC(F)(F)F)c(N2C(=O)CS/C2=N\C(=O)Nc2ccc(-n3cnc(-c4ccc(OC(F)(F)F)cc4)n3)cc2Cl)cc1C [Compound J733, (Z)-1-(2-Chloro-4-(3-(4-(trifluoromethoxy)phenyl)-1H-1,2,4-triazol-1-yl)phenyl)-3-(3-(4,5-dimethyl-2-((2,2,2-trifluoroethoxy)methyl)phenyl)-4-oxothiazolidin-2-ylidene)urea] |  |  | 50 to 100% | 50 to 100% | 
CCCc1ccc(N(C)C)cc1N1C(=O)CS/C1=N\C(=O)Nc1ccc(-c2ncn(-c3ccc(OC(F)(F)F)cc3)n2)cc1C#N [Compound J247, (Z)-1-(2-Cyano-4-(1-(4-(trifluoromethoxy)phenyl)-1H-1,2,4-triazol-3-yl)phenyl)-3-(3-(5-(dimethylamino)-2-propylphenyl)-4-oxothiazolidin-2-ylidene)urea] | 50 to 100% | 50 to 100% |  |  | 
Cc1ccc(COCC(F)(F)F)c(N2C(=O)CS/C2=N\C(=O)Nc2ccc(-c3ncn(-c4ccc(S(F)(F)(F)(F)F)cc4)n3)cc2F)c1 [Compound J422] |  |  |  |  | CL rating [1]: A (50-100); BAW rating [2]: A (50-100)
CN(C)c1ccc(OCCC(F)(F)F)c(N2C(=O)CS/C2=N\C(=O)Nc2ccc(-c3ncn(-c4ccc(C(F)(F)F)cc4)n3)cc2F)c1 [Compound J184, (Z)-1-(3-(5-(Dimethylamino)-2-(3,3,3-trifluoropropoxy)phenyl)-4-oxothiazolidin-2-ylidene)-3-(2-fluoro-4-(1-(4-(trifluoromethyl)phenyl)-1H-1,2,4-triazol-3-yl)phenyl)urea] | 50 to 100% | 50 to 100% |  |  | 
COCc1ccc(C)cc1N1C(=O)CS/C1=N\C(=O)Nc1ccc(-c2ncn(-c3ccc(C(F)(F)F)cn3)n2)cc1F [Compound J298, (Z)-1-(2-Fluoro-4-(1-(5-(trifluoromethyl)pyridin-2-yl)-1H-1,2,4-triazol-3-yl)phenyl)-3-(3-(2-(methoxymethyl)-5-methylphenyl)-4-oxothiazolidin-2-ylidene)urea] | 50 to 100% | 50 to 100% |  |  | 
COc1ccc(C(C)C)c(N2C(=O)CS/C2=N\C(=O)Nc2ccc(-c3ncn(-c4ccc(C(F)(F)F)cc4)n3)cc2OC)c1 [Compound J10, (Z)-1-(3-(2-Isopropyl-5-methoxyphenyl)-4-oxothiazolidin-2-ylidene)-3-(2-methoxy-4-(1-(4-(trifluoromethyl)phenyl)-1H-1,2,4-triazol-3-yl)phenyl)urea] | 50 to 100% | 50 to 100% |  |  | 
CN(C)c1ccc(C(F)(F)F)c(N2C(=O)CS/C2=N\C(=O)Nc2ccc(-c3ncn(-c4ccc(OC(F)(F)F)cc4)n3)cc2F)c1 [Compound J182, (Z)-1-(3-(5-(Dimethylamino)-2-(trifluoromethyl)phenyl)-4-oxothiazolidin-2-ylidene)-3-(2-fluoro-4-(1-(4-(trifluoromethoxy)phenyl)-1H-1,2,4-triazol-3-yl)phenyl)urea] | 50 to 100% | 50 to 100% |  |  | 
CC(C)c1ccc(N(C)C)cc1N1C(=O)CS/C1=N\C(=O)Nc1ccc(-c2ncn(-c3ccc(OC(F)(F)F)cc3)n2)cc1C#N [Compound J242, (Z)-1-(2-Cyano-4-(1-(4-(trifluoromethoxy)phenyl)-1H-1,2,4-triazol-3-yl)phenyl)-3-(3-(5-(dimethylamino)-2-isopropylphenyl)-4-oxothiazolidin-2-ylidene)urea] | 50 to 100% | 50 to 100% |  |  | 
CCCc1ccc(N(C)C)cc1N1C(=O)CS/C1=N\C(=O)Nc1ccc(-c2ncn(-c3ccc(OC(F)(F)F)cn3)n2)cc1F [Compound J258, (Z)-1-(3-(5-(Dimethylamino)-2-propylphenyl)-4-oxothiazolidin-2-ylidene)-3-(2-fluoro-4-(1-(5-(trifluoromethoxy)pyridin-2-yl)-1H-1,2,4-triazol-3-yl)phenyl)urea] | 50 to 100% | 50 to 100% |  |  | 
Cc1ccc(C(C)C)c(N2C(=O)CS/C2=N\C(=O)Nc2ncc(-c3ncn(-c4ccc(C(F)(F)F)cc4)n3)cc2C)c1 [Compound J664, (Z)-1-(3-(2-isopropyl-5-methylphenyl)-4-oxothiazolidin-2-ylidene)-3-(3-methyl-5-(1-(4-(trifluoromethyl)phenyl)-1H-1,2,4-triazol-3-yl)pyridin-2-yl)urea] |  |  | 50 to 100% | 50 to 100% | 
Cc1ccc(C(C)C)c(N2C(=O)CS/C2=N\C(=O)Nc2ccc(-c3cn(-c4ccc(S(F)(F)(F)(F)F)cc4)cn3)cc2C)c1 [Compound J613, (Z)-1-(3-(2-Isopropyl-5-methylphenyl)-4-oxothiazolidin-2-ylidene)-3-(2-methyl-4-(1-(4-(pentafluoro-λ^6-sulfaneyl)phenyl)-1H-imidazol-4-yl)phenyl)urea] |  |  | 50 to 100% | 50 to 100% | 
CC(C)c1cc(F)c(N(C)C)cc1N1C(=O)CS/C1=N\C(=O)Nc1ccc(-c2nnc(-c3ccc(OC(F)(F)F)cc3)s2)cc1F [Compound J507, (Z)-1-(3-(5-(Dimethylamino)-4-fluoro-2-isopropylphenyl)-4-oxothiazolidin-2-ylidene)-3-(2-fluoro-4-(5-(4-(trifluoromethoxy)phenyl)-1,3,4-thiadiazol-2-yl)phenyl)urea] |  |  | 50 to 100% | 50 to 100% | 
CCCc1ccc(N(C)C)cc1N1C(=O)CS/C1=N\C(=O)Nc1ccc(-c2ncn(-c3ccc(S(=O)(=O)C(F)(F)F)cc3)n2)cc1F [Compound J370, (Z)-1-(3-(5-(Dimethylamino)-2-propylphenyl)-4-oxothiazolidin-2-ylidene)-3-(2-fluoro-4-(1-(4-((trifluoromethyl)sulfonyl)phenyl)-1H-1,2,4-triazol-3-yl)phenyl)urea] |  |  | 50 to 100% | 50 to 100% | 
COC(c1ccc(C)cc1N1C(=O)CS/C1=N\C(=O)Nc1ccc(-c2ncn(-c3ccc(C(F)(F)F)cn3)n2)cc1F)C(F)(F)F (stereo not shown) [Compound J377] |  |  |  |  | CL rating [1]: A (50-100); BAW rating [2]: A (50-100)
Cc1ccc(C(C)C)c(N2C(=O)CS/C2=N\C(=O)Nc2ccc(-c3cn(-c4ccc(C(F)(F)F)cn4)cn3)cc2C)c1 [Compound J509, (Z)-1-(3-(2-Isopropyl-5-methylphenyl)-4-oxothiazolidin-2-ylidene)-3-(2-methyl-4-(1-(5-(trifluoromethyl)pyridin-2-yl)-1H-imidazol-4-yl)phenyl)urea] |  |  | 50 to 100% | 50 to 100% | 
Cc1ccc(OCCC(F)(F)F)c(N2C(=O)CS/C2=N\C(=O)Nc2ccc(-c3ncn(-c4ccc(OC(F)(F)F)cc4)n3)cc2C(C)C)c1 [Compound J93, (Z)-1-(2-Isopropyl-4-(1-(4-(trifluoromethoxy)phenyl)-1H-1,2,4-triazol-3-yl)phenyl)-3-(3-(5-methyl-2-(3,3,3-trifluoropropoxy)phenyl)-4-oxothiazolidin-2-ylidene)urea] | 50 to 100% | 50 to 100% |  |  | 
CC(C)c1ccc(N(C)C)cc1N1C(=O)CS/C1=N\C(=O)Nc1ccc(-c2ncn(-c3ccc(S(F)(F)(F)(F)F)cc3)n2)cc1F [Compound J450] |  |  |  |  | CL rating [1]: A (50-100); BAW rating [2]: A (50-100)
COCOc1cc(-c2ncn(-c3ccc(OC(F)(F)F)cc3)n2)ccc1NC(=O)/N=C1\SCC(=O)N1c1cc(C)ccc1COCC(F)(F)F [Compound J173, (Z)-1-(2-(Methoxymethoxy)-4-(1-(4-(trifluoromethoxy)phenyl)-1H-1,2,4-triazol-3-yl)phenyl)-3-(3-(5-methyl-2-((2,2,2-trifluoroethoxy)methyl)phenyl)-4-oxothiazolidin-2-ylidene)urea] | 50 to 100% | 50 to 100% |  |  | 
COc1ccc(C(C)C)c(N2C(=O)CS/C2=N\C(=O)Nc2ccc(-c3ncn(-c4ccc(C(F)(F)F)cc4)n3)cc2F)c1 [Compound J11, (Z)-1-(2-Fluoro-4-(1-(4-(trifluoromethyl)phenyl)-1H-1,2,4-triazol-3-yl)phenyl)-3-(3-(2-isopropyl-5-methoxyphenyl)-4-oxothiazolidin-2-ylidene)urea] | 50 to 100% | 50 to 100% |  |  | 
